Test results published in ChEMBL document CHEMBL4265937, “Branched pentapeptides as potent inhibitors of the vascular endothelial growth factor 165 binding to Neuropilin-1: Design, synthesis and biological activity” (Eur J Med Chem, 2018).
Non-standard residues stand in square brackets, D forms with d. Residues, ends and D or L forms follow the SMILES beside them. *: point of attachment. X1 = N=C(N)NCCCCCCCCCCC(=O)*; X2 = N=C(N)NCCCCCCC(=O)*; Dab = NCC[C@H](N)C(=O)O

Experiments:
[1] = molecular target: Neuropilin-1 (Rattus norvegicus) (UniProt Q9QWJ9); test: Inhibition of biotinylated VEGF-A165 binding to rat NRP1/FC chimera at 0.3 uM after 40 mins by ELISA relative to control
[2] = molecular target: Neuropilin-1 (Rattus norvegicus) (UniProt Q9QWJ9); test: Inhibition of biotinylated VEGF-A165 binding to rat NRP1/FC chimera at 1 uM after 40 mins by ELISA relative to control
Neuropilin-1 [3] = molecular target: Neuropilin-1 (Homo sapiens, UniProt O14786); test: Inhibition of biotinylated VEGF165 binding to NRP1 (unknown origin) by ELISA
[4] = Half life in human plasma at 0.9 umol/ml by LC-MS analysis; assay type: ADME, cell-free
Neuropilin-1 [5] = molecular target: Neuropilin-1 (Rattus norvegicus, UniProt Q9QWJ9); test: Inhibition of biotinylated VEGF-A165 binding to rat NRP1/FC chimera after 40 mins by ELISA
[6] = molecular target: Neuropilin-1 (Rattus norvegicus) (UniProt Q9QWJ9); test: Inhibition of biotinylated VEGF-A165 binding to rat NRP1/FC chimera at 10 uM after 40 mins by ELISA relative to control

Sequence of Neuropilin-1 (Homo sapiens, UniProt O14786) (O14786 whole entry): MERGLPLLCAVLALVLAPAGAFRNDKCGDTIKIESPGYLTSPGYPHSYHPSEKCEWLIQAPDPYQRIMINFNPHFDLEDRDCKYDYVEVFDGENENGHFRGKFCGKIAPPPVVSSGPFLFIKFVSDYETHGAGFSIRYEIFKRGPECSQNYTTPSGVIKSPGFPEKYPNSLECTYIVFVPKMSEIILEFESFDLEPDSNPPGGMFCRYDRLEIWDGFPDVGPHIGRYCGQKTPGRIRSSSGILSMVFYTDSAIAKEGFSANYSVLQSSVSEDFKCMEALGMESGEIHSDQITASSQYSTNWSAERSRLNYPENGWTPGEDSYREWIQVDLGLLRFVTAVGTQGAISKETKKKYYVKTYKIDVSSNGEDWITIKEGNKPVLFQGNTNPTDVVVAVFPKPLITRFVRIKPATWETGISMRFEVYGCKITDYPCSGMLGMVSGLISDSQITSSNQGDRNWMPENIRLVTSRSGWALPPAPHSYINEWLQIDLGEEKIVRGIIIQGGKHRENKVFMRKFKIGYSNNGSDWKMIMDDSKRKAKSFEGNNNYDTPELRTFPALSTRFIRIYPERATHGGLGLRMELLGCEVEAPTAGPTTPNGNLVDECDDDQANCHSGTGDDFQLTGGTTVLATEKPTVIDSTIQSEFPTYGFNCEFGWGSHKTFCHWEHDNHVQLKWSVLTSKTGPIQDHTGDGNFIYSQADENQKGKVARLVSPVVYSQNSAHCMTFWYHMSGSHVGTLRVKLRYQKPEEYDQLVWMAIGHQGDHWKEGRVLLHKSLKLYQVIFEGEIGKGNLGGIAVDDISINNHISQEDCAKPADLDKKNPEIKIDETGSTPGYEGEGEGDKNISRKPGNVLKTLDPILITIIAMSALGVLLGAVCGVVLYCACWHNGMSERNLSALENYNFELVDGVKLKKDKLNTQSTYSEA

inhibition [1]	inhibition [2]	Compound	further results
12.1%	35.5%	N=C(N)NCCCCCCCCCCC(=O)NCCCC[C@H](N)C(=O)N1CCC[C@H]1C(=O)N[C@@H](CCN)C(=O)N[C@@H](CCCNC(=N)N)C(=O)O (H-K(X1)P[Dab]R-OH)	
25.5%	44.7%	N=C(N)NCCCCCCC(=O)NCCCC[C@H](N)C(=O)N1CCC[C@H]1C(=O)N[C@@H](CCN)C(=O)N[C@@H](CCCNC(=N)N)C(=O)O (H-K(X2)P[Dab]R-OH)	
10.1%	15.4%	N=C(N)NCCC[C@H](NC(=O)[C@@H]1CCCN1C(=O)[C@@H]1CCCN1C(=O)[C@@H](N)CCCCN)C(=O)O (H-KPPR-OH)	IC50 (Neuropilin-1 [3]): 4600 nM
16.9%	48.9%	C[C@H](NC(=O)[C@H](C)NC(=O)[C@@H](N)CCCCNC(=O)C(N)CCCCN=C(N)N)C(=O)N[C@@H](CCCNC(=N)N)C(=O)O (stereo partly drawn) (HELM PEPTIDE1{K.A.A.R}|PEPTIDE2{[N=C(N)NCCCCC(N)C(=O)[*:2]]}$PEPTIDE1,PEPTIDE2,1:R3-1:R2$$$V2.0)	
3.9%	20%	C[C@H](NC(=O)[C@@H](N)CCCCNC(=O)C(N)CCCCN=C(N)N)C(=O)N1CCC[C@H]1C(=O)N[C@@H](CCCNC(=N)N)C(=O)O (stereo partly drawn) (HELM PEPTIDE1{K.A.P.R}|PEPTIDE2{[N=C(N)NCCCCC(N)C(=O)[*:2]]}$PEPTIDE1,PEPTIDE2,1:R3-1:R2$$$V2.0)	
	22.2%	C[C@H](NC(=O)[C@H](CCCCN)NC(=O)[C@@H](N)CCCCNC(=O)C(N)CCCCN=C(N)N)C(=O)N[C@@H](CCCNC(=N)N)C(=O)O (stereo partly drawn) (HELM PEPTIDE1{K.K.A.R}|PEPTIDE2{[N=C(N)NCCCCC(N)C(=O)[*:2]]}$PEPTIDE1,PEPTIDE2,1:R3-1:R2$$$V2.0)	
	22.1%	N=C(N)NCCC[C@H](NC(=O)[C@@H]1CCCN1C(=O)[C@H](CCCCN)NC(=O)[C@@H](N)CCCCNC(=O)C(N)CCCCN=C(N)N)C(=O)O (stereo partly drawn) (HELM PEPTIDE1{K.K.P.R}|PEPTIDE2{[N=C(N)NCCCCC(N)C(=O)[*:2]]}$PEPTIDE1,PEPTIDE2,1:R3-1:R2$$$V2.0)	
54.2%	77.5%	C[C@H](NC(=O)[C@@H]1CCCN1C(=O)[C@@H](N)CCCCNC(=O)C(N)CCCCN=C(N)N)C(=O)N[C@@H](CCCNC(=N)N)C(=O)O (stereo partly drawn) (HELM PEPTIDE1{K.P.A.R}|PEPTIDE2{[N=C(N)NCCCCC(N)C(=O)[*:2]]}$PEPTIDE1,PEPTIDE2,1:R3-1:R2$$$V2.0)	half-life at 900 µM [4]: 0.65 h; IC50 (Neuropilin-1 [5]; read-out: IC50): 300 nM
20.6%	22.4%	N=C(N)NCCC[C@H](NC(=O)[C@H](CCCCN)NC(=O)[C@@H]1CCCN1C(=O)[C@@H](N)CCCCNC(=O)C(N)CCCCN=C(N)N)C(=O)O (stereo partly drawn) (HELM PEPTIDE1{K.P.K.R}|PEPTIDE2{[N=C(N)NCCCCC(N)C(=O)[*:2]]}$PEPTIDE1,PEPTIDE2,1:R3-1:R2$$$V2.0)	
4.7%	41.4%	N=C(N)NCCC[C@H](NC(=O)[C@@H]1CCCN1C(=O)[C@@H]1CCCN1C(=O)[C@@H](N)CCCCNC(=O)C(N)CCCCN=C(N)N)C(=O)O (stereo partly drawn) (HELM PEPTIDE1{K.P.P.R}|PEPTIDE2{[N=C(N)NCCCCC(N)C(=O)[*:2]]}$PEPTIDE1,PEPTIDE2,1:R3-1:R2$$$V2.0)	IC50 (Neuropilin-1 [5]; read-out: IC50): 1000 nM
		N=C(N)NCCC[C@H](NC(=O)[C@@H]1CCCN1C(=O)[C@@H](N)CCCCNC(=O)C(N)CCCCN=C(N)N)C(=O)O (stereo partly drawn) (HELM PEPTIDE1{K.P.R}|PEPTIDE2{[N=C(N)NCCCCC(N)C(=O)[*:2]]}$PEPTIDE1,PEPTIDE2,1:R3-1:R2$$$V2.0)	inhibition [6]: 47.8%
5.7%	28%	N=C(N)NCCC[C@H](NC(=O)[C@H](CCN)NC(=O)[C@@H]1CCCN1C(=O)[C@@H](N)CCCCNC(=O)C(N)CCNC(=N)N)C(=O)O (stereo partly drawn) (HELM PEPTIDE1{K.P.[Dab].R}|PEPTIDE2{[N=C(N)NCCC(N)C(=O)[*:2]]}$PEPTIDE1,PEPTIDE2,1:R3-1:R2$$$V2.0)	
8%	39.9%	N=C(N)NCCCC(N)C(=O)NCCCC[C@H](N)C(=O)N1CCC[C@H]1C(=O)N[C@@H](CCN)C(=O)N[C@@H](CCCNC(=N)N)C(=O)O (stereo partly drawn) (HELM PEPTIDE1{K.P.[Dab].R}|PEPTIDE2{[N=C(N)NCCCC(N)C(=O)[*:2]]}$PEPTIDE1,PEPTIDE2,1:R3-1:R2$$$V2.0)	
62.2%	82.6%	N=C(N)NCCC[C@H](NC(=O)[C@H](CCN)NC(=O)[C@@H]1CCCN1C(=O)[C@@H](N)CCCCNC(=O)C(N)CCCCN=C(N)N)C(=O)O (stereo partly drawn) (HELM PEPTIDE1{K.P.[Dab].R}|PEPTIDE2{[N=C(N)NCCCCC(N)C(=O)[*:2]]}$PEPTIDE1,PEPTIDE2,1:R3-1:R2$$$V2.0)	half-life at 900 µM [4]: 0.733 h; IC50 (Neuropilin-1 [5]; read-out: IC50): 200 nM; IC50 (Neuropilin-1 [5]; read-out: pIC50 (converted)): 240 nM
18.4%	23.6%	N=C(N)NCCC[C@H](NC(=O)[C@H](CN)NC(=O)[C@@H]1CCCN1C(=O)[C@@H](N)CCCCNC(=O)C(N)CCCCN=C(N)N)C(=O)O (stereo partly drawn) (HELM PEPTIDE1{K.P.[NC[C@H](N[*:1])C(=O)[*:2]].R}|PEPTIDE2{[N=C(N)NCCCCC(N)C(=O)[*:2]]}$PEPTIDE1,PEPTIDE2,1:R3-1:R2$$$V2.0)	
11.1%	17.8%	N=C(N)NCCC[C@H](NC(=O)[C@H](CCCN)NC(=O)[C@@H]1CCCN1C(=O)[C@@H](N)CCCCNC(=O)C(N)CCCCN=C(N)N)C(=O)O (stereo partly drawn) (HELM PEPTIDE1{K.P.[Orn].R}|PEPTIDE2{[N=C(N)NCCCCC(N)C(=O)[*:2]]}$PEPTIDE1,PEPTIDE2,1:R3-1:R2$$$V2.0)	
16.1%	47.3%	C[C@H](NC(=O)[C@H](CCN)NC(=O)[C@@H](N)CCCCNC(=O)C(N)CCCCN=C(N)N)C(=O)N[C@@H](CCCNC(=N)N)C(=O)O (stereo partly drawn) (HELM PEPTIDE1{K.[Dab].A.R}|PEPTIDE2{[N=C(N)NCCCCC(N)C(=O)[*:2]]}$PEPTIDE1,PEPTIDE2,1:R3-1:R2$$$V2.0)	
59.6%	83.7%	N=C(N)NCCC[C@H](NC(=O)[C@@H]1CCCN1C(=O)[C@H](CCN)NC(=O)[C@@H](N)CCCCNC(=O)C(N)CCCCN=C(N)N)C(=O)O (stereo partly drawn) (HELM PEPTIDE1{K.[Dab].P.R}|PEPTIDE2{[N=C(N)NCCCCC(N)C(=O)[*:2]]}$PEPTIDE1,PEPTIDE2,1:R3-1:R2$$$V2.0)	half-life at 900 µM [4]: 41 h; IC50 (Neuropilin-1 [5]; read-out: IC50): 200 nM
14.1%	25%	C[C@H](NC(=O)[C@H](CN)NC(=O)[C@@H](N)CCCCNC(=O)C(N)CCCCN=C(N)N)C(=O)N[C@@H](CCCNC(=N)N)C(=O)O (stereo partly drawn) (HELM PEPTIDE1{K.[NC[C@H](N[*:1])C(=O)[*:2]].A.R}|PEPTIDE2{[N=C(N)NCCCCC(N)C(=O)[*:2]]}$PEPTIDE1,PEPTIDE2,1:R3-1:R2$$$V2.0)	
59.4%	82%	N=C(N)NCCC[C@H](NC(=O)[C@@H]1CCCN1C(=O)[C@H](CN)NC(=O)[C@@H](N)CCCCNC(=O)C(N)CCCCN=C(N)N)C(=O)O (stereo partly drawn) (HELM PEPTIDE1{K.[NC[C@H](N[*:1])C(=O)[*:2]].P.R}|PEPTIDE2{[N=C(N)NCCCCC(N)C(=O)[*:2]]}$PEPTIDE1,PEPTIDE2,1:R3-1:R2$$$V2.0)	half-life at 900 µM [4]: 34 h; IC50 (Neuropilin-1 [5]; read-out: IC50): 200 nM
	15.6%	C[C@H](NC(=O)[C@H](CCCN)NC(=O)[C@@H](N)CCCCNC(=O)C(N)CCCCN=C(N)N)C(=O)N[C@@H](CCCNC(=N)N)C(=O)O (stereo partly drawn) (HELM PEPTIDE1{K.[Orn].A.R}|PEPTIDE2{[N=C(N)NCCCCC(N)C(=O)[*:2]]}$PEPTIDE1,PEPTIDE2,1:R3-1:R2$$$V2.0)	
10.4%	38%	N=C(N)NCCC[C@H](NC(=O)[C@@H]1CCCN1C(=O)[C@H](CCCN)NC(=O)[C@@H](N)CCCCNC(=O)C(N)CCCCN=C(N)N)C(=O)O (stereo partly drawn) (HELM PEPTIDE1{K.[Orn].P.R}|PEPTIDE2{[N=C(N)NCCCCC(N)C(=O)[*:2]]}$PEPTIDE1,PEPTIDE2,1:R3-1:R2$$$V2.0)	
5.7%	41.4%	N=C(N)NCCC[C@H](NC(=O)[C@H](CCN)NC(=O)[C@@H]1CCCN1C(=O)[C@@H](N)CCNC(=O)C(N)CCCCN=C(N)N)C(=O)O (stereo partly drawn) (HELM PEPTIDE1{[Dab].P.[Dab].R}|PEPTIDE2{[N=C(N)NCCCCC(N)C(=O)[*:2]]}$PEPTIDE1,PEPTIDE2,1:R3-1:R2$$$V2.0)	
		N=C(N)NCCC[C@H](NC(=O)[C@@H]1CCCN1C(=O)C(CCN)NC(=O)[C@@H](N)CCCCN=C(N)N)C(=O)O (stereo partly drawn) (HELM PEPTIDE1{[N=C(N)NCCCC[C@H](N)C(=O)[*:2]].[NCCC(N[*:1])C(=O)[*:2]].P.R}$$$$V2.0)	IC50 (Neuropilin-1 [3]): 800 nM
2.8%	40.3%	N=C(N)NCCCC(N)C(=O)NCCC[C@H](N)C(=O)N1CCC[C@H]1C(=O)N[C@@H](CCN)C(=O)N[C@@H](CCCNC(=N)N)C(=O)O (stereo partly drawn) (HELM PEPTIDE1{[Orn].P.[Dab].R}|PEPTIDE2{[N=C(N)NCCCC(N)C(=O)[*:2]]}$PEPTIDE1,PEPTIDE2,1:R3-1:R2$$$V2.0)	
17%	36.3%	N=C(N)NCCC[C@H](NC(=O)[C@H](CCN)NC(=O)[C@@H]1CCCN1C(=O)[C@@H](N)CCCNC(=O)C(N)CCCCN=C(N)N)C(=O)O (stereo partly drawn) (HELM PEPTIDE1{[Orn].P.[Dab].R}|PEPTIDE2{[N=C(N)NCCCCC(N)C(=O)[*:2]]}$PEPTIDE1,PEPTIDE2,1:R3-1:R2$$$V2.0)	
